From patent publication US12331042B2, “Compounds suitable for the treatment and prophylaxis of muscle wasting and other conditions” (priority 2019, dated 2025)

Tested on: C57/BL6 mice with LAD ligation (CHF)
Test: Myocardial infarction LAD mouse model (CHF, HFrEF)
Assay type: in vivo
Conditions: 0.1% compound in chow
Procedure: A myocardial infarction mouse model suffering from a heart failure with reduced ejection fraction (HFrEF) was generated by ligating the left anterior […] coronary artery (LAD) as described below to induce an acute myocardial infarction (MI) followed by the development of a chronic (systolic) heart failure (CHF).
A small animal surgery was carried out on C57/BL6 mice at 12 weeks of age in the Leipzig Heart Center following established and well known procedures in the field (see for example Bowen et al., J Appl Physiol, 2015, 118, 11-19; Mangner et al., J Cachexia Sarcopenia Muscle, 2015, 6, 381-390). Briefly, mice from the LAD group were anesthetized by i.p. injection of MMF; Medetomidin (0.5 mg/kg body weight), Midazolam (5.0 mg/kg body weight), Fentanyl (0.05 mg/kg body weight). Unconscious mice were fixed on an operation table. Ventral parts of the thorax were shaved, washed and sterilized. Unconscious mice were then intubated and ventilated with normal room air, using an animal respirator (TSE GmbH, Siemensstr. 21, 61352 Bad Homburg; product: http://tinateb.com/wp-content/uploads/2016/06/TSE_Respirator-Compact_20080724_HR.pdf). For LAD operation, the thorax was opened about 1 cm above the Processus xiphoideus and about 1 cm left parasternally by dissecting the skin here. The below located M. pectoralis was moved to the sides without further injury to access the thorax wall. The intercostal muscles between two ribs were moved to the side without breaking the ribs. The thereby created intrathoracic access was widened by a surgical spreader inserted above the pericardium. The pericardium was opened surgically stump by using two anatomical forceps. The thymus, if present in the surgical field, was pushed to the side with a surgical swab to gain access to the aortic root. The heart was carefully moved out of the pericardium using a hook, and the left atrium was put to the side with a surgical swab. The LAD was then ligated with a 5.0 Prolene suture (Ethicon, see http://www.ethicon.com/healthcare-professionals/products/wound-closure/non-absorbable-sutures/prolene-polypropylene). The ligation was made close to the aortic root, and the suture was tightened until paleness of the coronary artery anterior wall was noted. After ligation, the thorax wall and then the skin were closed by a single button seam using a 4.0 Prolene suture (company: Ethicon).
As a control, sham operations were performed. For the sham control group, the procedure followed was exactly the same as described above, except that the 5.0 prolene suture was only loosely out around the LAD without tightening.
The operation is ended by extubation, and antagonizing the anesthesia by i.p. injection of Atipamezol (2.5 mg/kg body weight) and Flumazenil (0.5 mg/kg body weight). Mice were put onto a warming mate until waking up, and then were transferred back to animal cages. The time for the whole procedure above by expert staff was around 30 min.
One week after LAD ligation, echocardiography was performed in M-mode to confirm MI, i.e. the left ventricular end-diastolic (LVEDD) and systolic (LVESD) diameters were assessed to allow calculation of left ventricular (LV) fractional shortening (LVFS=[LVEDD_LVESDLVEDD]×100). Only mice with a large infarct (left ventricular ejection fraction (LVEF)<20%) were subsequently randomized into two groups, i.e. one group receiving normal chow (CHF, n=11) and a second group receiving chow supplemented with compound (0.1% of compound MyoMed-946, CHF+MyoMed-946, n=12). Sham operated animals received only normal chow (n=15). Nine weeks later, echocardiography was performed again.
The animals were sacrificed to collect tissues, in particular diaphragm tissue, for functional and molecular characterization. All experiments and procedures were approved by the local Animal Research Council, University of Leipzig, and the Landesbehörde Sachsen (TVV 36/15).

[1] = after 10 weeks of intervention, n = 12
[2] = after 10 weeks, echocardiography

## Cc1cc(=O)oc2cc(OCc3ccc(C(=O)OCC(=O)NC(=O)NCc4ccco4)cc3)ccc12 [MyoMed-946, [2-(2-furylmethylcarbamoylamino)-2-oxo-ethyl] 4-[(4-methyl-2-oxo-chromen-7-yl)oxymethyl]benzoate]
After 10 weeks of intervention, histology
  LV infarct size: 27.1 ± 2.9%
[1]
  Heart-to-body weight: 7.52 ± 0.57 mg/g
  Lung weight (wet/dry): 4.47 ± 0.10
[2]
  LVEDD: 5.9 ± 0.2 mm
  LVEF: 21.1 ± 2.5 %
  LVESD: 5.3 ± 0.2 mm
  LVFS: 9.9 ± 1.2 %
